Laboratory results published in paper PMC11859184, “Synthesis and Evaluation of ^68Ga- and ^177Lu-Labeled [diF-Pro^14]Bombesin(6−14) Analogs for Detection and Radioligand Therapy of Gastrin-Releasing Peptide Receptor-Expressing Cancer” (Pharmaceuticals, 2025).
Where two headings read alike, the source gives them in different places.

Assay: Ex vivo biodistribution of 177Lu-labeled ligands in PC-3 tumor-bearing mice
Conditions: mouse, intravenous; for tissue uptake at 72 h: 72 h pi; for tissue uptake at 120 h: 120 h pi; for tissue uptake at 1 h: 1 h pi; for tissue uptake at 4 h: 4 h pi; for tissue uptake at 24 h: 24 h pi
Procedure: SPECT/CT imaging was conducted using an MI Labs (Houten, The Netherlands) U-SPECT-II/CT scanner with a custom-made ultra-high sensitivity big mouse collimator (2 mm pinhole size) following published procedure. The experiments were obtained in accordance with the same protocol established in the PET/CT imaging and ex vivo biodistributions section. The mice were used for SPECT/CT imaging and ex vivo biodistributions studies once the tumors reached a diameter of 5–8 mm. PC-3 tumor-bearing mice were sedated (2.5% isoflurane in O2) and injected with 31.4–36.9 MBq of the ^177Lu-labeled ligand through a lateral caudal tail vein. The mouse was imaged at 1, 4, 24, 72, and 120 h pi. At each time point, a 5 min CT scan was performed with 615 μA and 60 kV parameters for localization and attenuation, followed by two 30 min static SPECT scans in list mode with an energy window centered around 208 keV. The U-SPECT II software was used to reconstruct data, and the images were decay corrected to the time of injection with PMOD v 3.402 (PMOD Technologies GmbH, Fallanden, Switzerland).
For ex vivo biodistribution studies, the mice were injected with ~3–5 MBq of the ^177Lu-labeled ligand (n = 5). At 1, 4, 24, 72, and 120 h post-injection, the mice were anesthetized with 2% isoflurane, euthanized by CO2 inhalation, and the tissues/organs of interest were […] for radioactivity counting. The blocking study was performed at 1 h pi via co-injection of the ^177Lu-labeled ligand with 100 μg of [D-Phe^6,Leu-NHEt^13,des-Met^14]Bombesin(6–14).

[1] = heart, n = 5, read-out: Heart uptake
[2] = kidneys, n = 5, read-out: Kidneys uptake
[3] = large intestine, n = 5, read-out: Large intestine uptake
[4] = liver, n = 5, read-out: Liver uptake
[5] = lungs, n = 5, read-out: Lungs uptake
[6] = muscle, n = 5, read-out: Muscle uptake
[7] = pancreas, n = 5, read-out: Pancreas uptake
[8] = small intestine, n = 5, read-out: Small intestine uptake
[9] = spleen, n = 5, read-out: Spleen uptake
[10] = stomach, n = 5, read-out: Stomach uptake
[11] = testes, n = 5, read-out: Testes uptake

tissue uptake at 72 h [1]: 0.01 %ID/g | tissue uptake at 120 h [1]: 0.01 %ID/g | tissue uptake at 1 h (kidneys, 100 ug, blocked (100 µg GRPR antagonist co-injected), read-out: Kidneys uptake): 3.8 ± 0.85 %ID/g | tissue uptake at 1 h [2]: 3.62 ± 0.86 %ID/g | tissue uptake at 4 h [2]: 2.85 ± 0.29 %ID/g | tissue uptake at 24 h [2]: 1.06 ± 0.22 %ID/g | tissue uptake at 72 h [2]: 0.33 ± 0.03 %ID/g | tissue uptake at 120 h [2]: 0.15 ± 0.04 %ID/g | tissue uptake at 1 h (large intestine, 100 ug, blocked (100 µg GRPR antagonist co-injected), read-out: Large intestine uptake): 0.22 ± 0.04 %ID/g | tissue uptake at 1 h [3]: 0.49 ± 0.31 %ID/g | tissue uptake at 4 h [3]: 0.68 ± 0.12 %ID/g | tissue uptake at 24 h [3]: 0.43 ± 0.13 %ID/g | tissue uptake at 72 h [3]: 0.32 ± 0.14 %ID/g | tissue uptake at 120 h [3]: 0.05 ± 0.02 %ID/g | tissue uptake at 1 h (liver, 100 ug, blocked (100 µg GRPR antagonist co-injected), read-out: Liver uptake): 0.27 ± 0.03 %ID/g | tissue uptake at 1 h [4]: 0.47 ± 0.19 %ID/g | tissue uptake at 4 h [4]: 0.27 ± 0.06 %ID/g | tissue uptake at 24 h [4]: 0.14 ± 0.07 %ID/g | tissue uptake at 72 h [4]: 0.06 ± 0.01 %ID/g | tissue uptake at 120 h [4]: 0.07 ± 0.02 %ID/g | tissue uptake at 1 h (lungs, 100 ug, blocked (100 µg GRPR antagonist co-injected), read-out: Lungs uptake): 0.54 ± 0.17 %ID/g | tissue uptake at 1 h [5]: 0.57 ± 0.18 %ID/g | tissue uptake at 4 h [5]: 0.15 ± 0.04 %ID/g | tissue uptake at 24 h [5]: 0.06 ± 0.02 %ID/g | tissue uptake at 72 h [5]: 0.03 ± 0.01 %ID/g | tissue uptake at 120 h [5]: 0.02 %ID/g | tissue uptake at 1 h (muscle, 100 ug, blocked (100 µg GRPR antagonist co-injected), read-out: Muscle uptake): 0.15 ± 0.05 %ID/g | tissue uptake at 1 h [6]: 0.13 ± 0.05 %ID/g | tissue uptake at 4 h [6]: 0.05 ± 0.01 %ID/g | tissue uptake at 24 h [6]: 0.01 %ID/g | tissue uptake at 72 h [6]: 0.01 %ID/g | tissue uptake at 1 h (pancreas, 100 ug, blocked (100 µg GRPR antagonist co-injected), read-out: Pancreas uptake): 0.51 ± 0.12 %ID/g | tissue uptake at 1 h [7]: 2.64 ± 0.63 %ID/g | tissue uptake at 4 h [7]: 1.71 ± 0.08 %ID/g | tissue uptake at 24 h [7]: 1.04 ± 0.19 %ID/g | tissue uptake at 72 h [7]: 0.35 ± 0.08 %ID/g | tissue uptake at 120 h [7]: 0.11 ± 0.01 %ID/g | tissue uptake at 1 h (small intestine, 100 ug, blocked (100 µg GRPR antagonist co-injected), read-out: Small intestine uptake): 0.23 ± 0.06 %ID/g | tissue uptake at 1 h [8]: 0.67 ± 0.16 %ID/g | tissue uptake at 4 h [8]: 0.26 ± 0.04 %ID/g | tissue uptake at 24 h [8]: 0.13 ± 0.01 %ID/g | tissue uptake at 72 h [8]: 0.04 ± 0.01 %ID/g | tissue uptake at 120 h [8]: 0.02 ± 0.01 %ID/g | tissue uptake at 1 h (spleen, 100 ug, blocked (100 µg GRPR antagonist co-injected), read-out: Spleen uptake): 0.2 ± 0.06 %ID/g | tissue uptake at 1 h [9]: 0.46 ± 0.2 %ID/g | tissue uptake at 4 h [9]: 0.13 ± 0.03 %ID/g | tissue uptake at 24 h [9]: 0.09 ± 0.02 %ID/g | tissue uptake at 72 h [9]: 0.07 ± 0.02 %ID/g | tissue uptake at 120 h [9]: 0.05 ± 0.01 %ID/g | tissue uptake at 1 h (stomach, 100 ug, blocked (100 µg GRPR antagonist co-injected), read-out: Stomach uptake): 0.08 ± 0.03 %ID/g | tissue uptake at 1 h [10]: 0.29 ± 0.06 %ID/g | tissue uptake at 4 h [10]: 1.2 ± 1.55 %ID/g | tissue uptake at 24 h [10]: 0.12 ± 0.05 %ID/g | tissue uptake at 72 h [10]: 0.07 ± 0.02 %ID/g | tissue uptake at 120 h [10]: 0.03 ± 0.01 %ID/g | tissue uptake at 1 h (testes, 100 ug, blocked (100 µg GRPR antagonist co-injected), read-out: Testes uptake): 0.14 ± 0.05 %ID/g | tissue uptake at 1 h [11]: 0.18 ± 0.03 %ID/g | tissue uptake at 4 h [11]: 0.04 ± 0.01 %ID/g | tissue uptake at 24 h [11]: 0.02 %ID/g | tissue uptake at 72 h [11]: 0.02 ± 0.01 %ID/g | tissue uptake at 120 h [11]: 0.01 ± 0.01 %ID/g
SMILES: CC(C)C[C@H](NC(=O)[C@H](Cc1cnc[nH]1)N(C)C(=O)CNC(=O)[C@@H](NC(=O)[C@H](C)NC(=O)[C@H](Cc1c[nH]c2ccccc12)NC(=O)[C@H](CCC(N)=O)NC(=O)[C@@H](Cc1ccccc1)NC(=O)CN1CCC(NC(=O)CN2CCN(CC(=O)O)CCN(CC(=O)O)CCN(CC(=O)O)CC2)CC1)C(C)(C)C)C(=O)N1CC(F)(F)C[C@H]1C(N)=O [[^177Lu]Lu-LW02060, metal not drawn]
